# Values of other authors, collected in US7132450B2, “Hepatic disorder suppressant” (Kagome Co., Ltd., priority 2000, dated 2006).
# What was measured:
# NO and O2^− generation = details: reported in literature
# [1] = reported in literature
SMILES,inhibitory effect on NO and O2^− generation (NO and O2^− generation),growth suppressing effect [1]
CCCCC/C=C\C/C=C\CCCCC/C=C/C(=O)CC(O)COC(C)=O (stereo not drawn) [Compound 4],has inhibitory effect on NO and O2^− generation,–
"CCCCC/C=C\C/C=C\CCCCCCCC(=O)CC(O)COC(C)=O (stereo not drawn) [Compound 5, persin]",inhibitory effect on NO and O2^− generation,various growth suppressing effect
